Key:
Type in all cases: biochemical
[1] = target: T1, VIM-2 (Escherichia coli, UniProt Q5U7L7); experiment: β-lactamase enzyme inhibition, VIM-2; conditions: substrate Nitrocefin 100 μM, 486 nm; read-out: Class B VIM-2 IC50
T1 construct: made in house; host or cells: E. coli BL21(DE3)
Outline: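 Purified VIM-2 (Q sepharose, 50 mM Hepes pH 7.5, >90% purity) preincubated with inhibitor 15 min at 37° C, then nitrocefin added at 100 μM final. Hydrolysis followed at 486 nm for 10 min; IC50 from initial rates versus inhibitor-free control wells.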

[2] = target: T2, KPC-2 (Klebsiella pneumoniae, UniProt Q9F663); experiment: β-lactamase enzyme inhibition, KPC-2; conditions: substrate imipenem, 300 nm; read-out: Class A KPC-2 IC50
T2 construct: made in house; host or cells: E. coli BL21(DE3)
Outline: (§1)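 Native untagged β-lactamases expressed in E. coli BL21(DE3) and purified, then pre-incubated with inhibitor 15 min at 37 °C. Hydrolysis was followed by absorbance: 100 μM nitrocefin at 486 nm for p99 AmpC and OXA-1; imipenem at 300 nm for KPC-2; cefotaxime at 260 nm for SHV-5. IC50 from initial-rate inhibition versus uninhibited controls.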

[3] = target: T3, SHV-5 (Klebsiella pneumoniae, UniProt P0A3M1); experiment: β-lactamase enzyme inhibition, SHV-5
T3 construct: made in house; host or cells: E. coli BL21(DE3)
Outline: as §1

[4] = target: T4, OXA-1 (Escherichia coli, UniProt P13661); experiment: β-lactamase enzyme inhibition, OXA-1; conditions: substrate Nitrocefin 100 μM, 486 nm; read-out: Class D OXA-1 IC50
T4 construct: made in house; host or cells: E. coli BL21(DE3)
Outline: as §1

[5] = target: T5, p99 AmpC (Enterobacter cloacae, UniProt P05364); experiment: β-lactamase enzyme inhibition, p99 AmpC
T5 construct: made in house; host or cells: E. coli BL21(DE3)
Outline: as §1

NCCNC(=O)NCCN(C(=O)NCCN)C1CC(CC(=O)N[C@H]2Cc3cccc(C(=O)O)c3OB2O)C1 (stereo partly drawn) [Example 57, (R)-3-(2-(3-(3-(2-aminoethyl)-1-(2-(3-(2-aminoethyl)ureido)ethyl)ureido)cyclobutyl)acetamido)-2-hydroxy-3,4-dihydro-2H-benzo[e][1,2]oxaborinine-8-carboxylic acid]
IC50 [1]: 100 to 1000 nM
IC50 [2]: < 100 nM
IC50 [3]: < 100 nM
IC50 [4]: < 100 nM
IC50 [5]: < 100 nM

NCCNC(=O)NC1CC(CC(=O)N[C@H]2Cc3cccc(C(=O)O)c3OB2O)C1 (stereo partly drawn) [Example 58, (R)-3-(2-(3-(3-(2-aminoethyl)ureido)cyclobutyl)acetamido)-2-hydroxy-3,4-dihydro-2H-benzo[e][1,2]oxaborinine-8-carboxylic acid]
IC50 [1]: 100 to 1000 nM
IC50 [2]: < 100 nM
IC50 [3]: < 100 nM
IC50 [4]: < 100 nM
IC50 [5]: < 100 nM

NCCNC(=O)N[C@H]1CC[C@H](CC(=O)N[C@H]2Cc3cccc(C(=O)O)c3OB2O)CC1 [Example 59, (R)-3-(2-(trans-4-(3-(2-aminoethyl)ureido)cyclohexyl)acetamido)-2-hydroxy-3,4-dihydro-2H-benzo[e][1,2]oxaborinine-8-carboxylic acid]
IC50 [1]: 100 to 1000 nM
IC50 [2]: < 100 nM
IC50 [3]: < 100 nM
IC50 [4]: < 100 nM
IC50 [5]: < 100 nM

NCCCN[C@H]1CC[C@H](CC(=O)N[C@H]2Cc3cccc(C(=O)O)c3OB2O)CC1 [Example 60, (R)-3-(2-(trans-4-(3-aminopropylamino)cyclohexyl)acetamido)-2-hydroxy-3,4-dihydro-2H-benzo[e][1,2]oxaborinine-8-carboxylic acid]
IC50 [1]: < 100 nM
IC50 [2]: < 100 nM
IC50 [3]: < 100 nM
IC50 [4]: < 100 nM
IC50 [5]: < 100 nM

O=C(C[C@H]1CC[C@H](NCCNCCO)CC1)N[C@H]1Cc2cccc(C(=O)O)c2OB1O [Example 61, (R)-2-hydroxy-3-(2-(trans-4-(2-(2-hydroxyethylamino)ethylamino)cyclohexyl)acetamido)-3,4-dihydro-2H-benzo[e][1,2]oxaborinine-8-carboxylic acid]
IC50 [1]: < 100 nM
IC50 [2]: < 100 nM
IC50 [3]: < 100 nM
IC50 [4]: < 100 nM
IC50 [5]: < 100 nM

C[C@H](N)CNCCN[C@H]1CC[C@H](CC(=O)N[C@H]2Cc3cccc(C(=O)O)c3OB2O)CC1 [Example 62, (R)-3-(2-(trans-4-(2-((S)-2-aminopropylamino)ethylamino)cyclohexyl)acetamido)-2-hydroxy-3,4-dihydro-2H-benzo[e][1,2]oxaborinine-8-carboxylic acid]
IC50 [1]: < 100 nM
IC50 [2]: < 100 nM
IC50 [3]: < 100 nM
IC50 [4]: < 100 nM
IC50 [5]: < 100 nM

CN(CCN)[C@H]1CC[C@H](CC(=O)N[C@H]2Cc3cccc(C(=O)O)c3OB2O)CC1 [Example 63, (R)-3-(2-(trans-4-((2-aminoethyl)(methyl)amino)cyclohexyl)acetamido)-2-hydroxy-3,4-dihydro-2H-benzo[e][1,2]oxaborinine-8-carboxylic acid]
IC50 [1]: < 100 nM
IC50 [2]: < 100 nM
IC50 [3]: < 100 nM
IC50 [4]: < 100 nM
IC50 [5]: < 100 nM

CNCCN[C@H]1CC[C@H](C(CO)C(=O)N[C@H]2Cc3cccc(C(=O)O)c3OB2O)CC1 (stereo partly drawn) [Example 64, (R)-2-hydroxy-3-(3-hydroxy-2-(trans-4-(2-(methylamino)ethylamino)cyclohexyl)propanamido)-3,4-dihydro-2H-benzo[e][1,2]oxaborinine-8-carboxylic acid]
IC50 [1]: < 100 nM
IC50 [2]: 100 to 1000 nM
IC50 [3]: < 100 nM
IC50 [4]: < 100 nM
IC50 [5]: < 100 nM

N[C@@H](CO)CN[C@H]1CC[C@H](CC(=O)N[C@H]2Cc3cccc(C(=O)O)c3OB2O)CC1 [Example 65, (R)-3-(2-(trans-4-((R)-2-amino-3-hydroxypropylamino)cyclohexyl)acetamido)-2-hydroxy-3,4-dihydro-2H-benzo[e][1,2]oxaborinine-8-carboxylic acid]
IC50 [1]: < 100 nM
IC50 [2]: < 100 nM
IC50 [3]: < 100 nM
IC50 [4]: < 100 nM
IC50 [5]: < 100 nM

CSCCN[C@H]1CC[C@H](CC(=O)N[C@H]2Cc3cccc(C(=O)O)c3OB2O)CC1 [Example 66, (R)-2-hydroxy-3-(2-(trans-4-(2-(methylthio)ethylamino)cyclohexyl)acetamido)-3,4-dihydro-2H-benzo[e][1,2]oxaborinine-8-carboxylic acid]
IC50 [1]: 1000 to 10000 nM
IC50 [2]: < 100 nM
IC50 [3]: < 100 nM
IC50 [4]: < 100 nM
IC50 [5]: < 100 nM

N[C@H](CO)CN[C@H]1CC[C@H](CC(=O)N[C@H]2Cc3cccc(C(=O)O)c3OB2O)CC1 [Example 67, (R)-3-(2-(trans-4-((S)-2-amino-3-hydroxypropylamino)cyclohexyl)acetamido)-2-hydroxy-3,4-dihydro-2H-benzo[e][1,2]oxaborinine-8-carboxylic acid]
IC50 [1]: 100 to 1000 nM
IC50 [2]: < 100 nM
IC50 [3]: < 100 nM
IC50 [4]: < 100 nM
IC50 [5]: < 100 nM

NCC(=O)N[C@H]1CC[C@H](CC(=O)N[C@H]2Cc3cccc(C(=O)O)c3OB2O)CC1 [Example 68, (R)-3-(2-(trans-4-(2-aminoacetamido)cyclohexyl)acetamido)-2-hydroxy-3,4-dihydro-2H-benzo[e][1,2]oxaborinine-8-carboxylic acid]
IC50 [1]: 100 to 1000 nM
IC50 [2]: < 100 nM
IC50 [3]: < 100 nM
IC50 [4]: < 100 nM
IC50 [5]: < 100 nM

O=C(C[C@H]1CC[C@H](N(Cc2ncc[nH]2)Cc2ncc[nH]2)CC1)N[C@H]1Cc2cccc(C(=O)O)c2OB1O [Example 69, (R)-3-(2-(trans-4-(bis((1H-imidazol-2-yl)methyl)amino)cyclohexyl)acetamido)-2-hydroxy-3,4-dihydro-2H-benzo[e][1,2]oxaborinine-8-carboxylic acid]
IC50 [1]: < 100 nM
IC50 [2]: < 100 nM
IC50 [3]: < 100 nM
IC50 [4]: < 100 nM
IC50 [5]: < 100 nM

O=C(C[C@H]1CC[C@H](NCc2cnc[nH]2)CC1)N[C@H]1Cc2cccc(C(=O)O)c2OB1O [Example 70, (R)-3-(2-(trans-4-((1H-imidazol-5-yl)methylamino)cyclohexyl)acetamido)-2-hydroxy-3,4-dihydro-2H-benzo[e][1,2]oxaborinine-8-carboxylic acid]
IC50 [1]: 100 to 1000 nM
IC50 [2]: < 100 nM
IC50 [3]: < 100 nM
IC50 [4]: < 100 nM
IC50 [5]: < 100 nM

CC(C)NCCN[C@H]1CC[C@H](CC(=O)N[C@H]2Cc3cccc(C(=O)O)c3OB2O)CC1 [Example 71, (R)-2-hydroxy-3-(2-(trans-4-(2-(isopropylamino)ethylamino)cyclohexyl)acetamido)-3,4-dihydro-2H-benzo[e][1,2]oxaborinine-8-carboxylic acid]
IC50 [1]: < 100 nM
IC50 [2]: < 100 nM
IC50 [3]: < 100 nM
IC50 [4]: < 100 nM
IC50 [5]: < 100 nM

O=C(C[C@H]1CC[C@H](NCCNc2ncccn2)CC1)N[C@H]1Cc2cccc(C(=O)O)c2OB1O [Example 72]
IC50 [1]: 100 to 1000 nM
IC50 [2]: < 100 nM
IC50 [3]: < 100 nM
IC50 [4]: < 100 nM
IC50 [5]: < 100 nM

O=C(C[C@H]1CC[C@H](NCCNC2CCCC2)CC1)N[C@H]1Cc2cccc(C(=O)O)c2OB1O [Example 73, (R)-3-(2-(trans-4-(2-(cyclopentylamino)ethylamino)cyclohexyl)acetamido)-2-hydroxy-3,4-dihydro-2H-benzo[e][1,2]oxaborinine-8-carboxylic acid]
IC50 [1]: < 100 nM
IC50 [2]: < 100 nM
IC50 [3]: < 100 nM
IC50 [4]: < 100 nM
IC50 [5]: < 100 nM

O=C(C[C@H]1CC[C@H](NCCNCC2CC2)CC1)N[C@H]1Cc2cccc(C(=O)O)c2OB1O [Example 74, (R)-3-(2-(trans-4-(2-(cyclopropylmethylamino)ethylamino)cyclohexyl)acetamido)-2-hydroxy-3,4-dihydro-2H-benzo[e][1,2]oxaborinine-8-carboxylic acid]
IC50 [1]: < 100 nM
IC50 [2]: < 100 nM
IC50 [3]: < 100 nM
IC50 [4]: < 100 nM
IC50 [5]: < 100 nM

O=C(C[C@H]1CC[C@H](NCCN(CC2CC2)CC2CC2)CC1)N[C@H]1Cc2cccc(C(=O)O)c2OB1O [Example 75, (R)-3-(2-(trans-4-(2-(bis(cyclopropylmethyl)amino)ethylamino)cyclohexyl)acetamido)-2-hydroxy-3,4-dihydro-2H-benzo[e][1,2]oxaborinine-8-carboxylic acid]
IC50 [1]: < 100 nM
IC50 [2]: < 100 nM
IC50 [3]: < 100 nM
IC50 [4]: < 100 nM
IC50 [5]: < 100 nM

NCCC(N)[C@H]1CC[C@H](CC(=O)N[C@H]2Cc3cccc(C(=O)O)c3OB2O)CC1 (stereo partly drawn) [Example 76, (R)-3-(2-(trans-4-(1,3-diaminopropyl)cyclohexyl)acetamido)-2-hydroxy-3,4-dihydro-2H-benzo[e][1,2]oxaborinine-8-carboxylic acid]
IC50 [1]: < 100 nM
IC50 [2]: < 100 nM
IC50 [3]: < 100 nM
IC50 [4]: < 100 nM
IC50 [5]: < 100 nM

NCC(N)[C@H]1CC[C@H](CC(=O)N[C@H]2Cc3cccc(C(=O)O)c3OB2O)CC1 (stereo partly drawn) [Example 77, (R)-3-(2-(trans-4-(1,2-diaminoethyl)cyclohexyl)acetamido)-2-hydroxy-3,4-dihydro-2H-benzo[e][1,2]oxaborinine-8-carboxylic acid]
IC50 [1]: 100 to 1000 nM
IC50 [2]: 100 to 1000 nM
IC50 [3]: < 100 nM
IC50 [4]: < 100 nM
IC50 [5]: < 100 nM

Source: patent US8912169B2, “Beta-lactamase inhibitors” (VenatoRx Pharmaceuticals, Inc., priority 2012, dated 2014)
